Measured values from US20030236218A1, “Aryl phosphate derivatives of d4T with selective activity against adenovirus and HIV” (priority 2002, published 2003).
Values after ≈ are worked out from the molar mass of the structure shown. Read-outs that look alike come from different tables or passages of the source.

Key:
[1] = Pharmacokinetic studies in mice, intravenous administration; type: in vivo, Balb/c mice; details: for AUC: read-out: AUC (converted); for Vd: read-out: Vss; for Tmax: read-out: tmax (converted)
Procedure: Female Balb/c mice (6-8 weeks old) from Taconic (Germantown, N.Y.) were housed in a controlled environment (12-hours of light/12-hours of dark, 22±1° C., 60±10% relative humidity), which is fully accredited by the USDA. All rodents were housed in microisolator cages (Lab Products, Inc., NJ) containing autoclaved bedding. The mice were allowed free access to autoclaved pellet food and tap water throughout the study.
Blood samples (˜500 μL) were obtained from the ocular venous plexus by retro-orbital venipuncture at 0, 2, 5, 10, 15, 30, 45, 60, 120, 240 and 360 minutes after intravenous injection.
All collected blood samples were heparinized and centrifuged at 7000×g for 5 minutes to separate the plasma fraction from the whole blood. The plasma samples were then processed immediately using the extraction procedure described above.
Pharmacokinetic modeling and parameter calculations were carried out using the WinNonlin Professional Version 3.0 (Pharsight, Inc., Mountain, Calif.) pharmacokinetics software (Chen et al., Pharm. Res., 16, 1003 (1999); Chen et al., Pharm. Res., 16, 117 (1999); Chen et al., J. Clin. Pharmacol., 39, 1248 (1999); Uckun et al., Clin. Cancer Res., 5, 2954 (1999); and Uckun et al., J. Pharmacol. Exp. Ther., 291, 1301 (1999)). An appropriate model was chosen on the basis of the lowest sum of weighted squared residuals, the lowest Schwartz Criterion (SC), the lowest Akaike's Information Criterion (AIC) value, the lowest standard errors of the fitted parameters, and the dispersion of the residuals. The elimination half-life was estimated by linear regression analysis of the terminal phase of the plasma concentration-time profile. The area under the concentration-time curve (AUC) was calculated according to the linear trapezoidal rule between the first sampling time (0 hours) and the last sampling time plus C/k, where C is the concentration of the last sampling and k is the elimination rate constant. The systemic clearance (CL) was determined by dividing the dose by the AUC. The metabolic clearance of the parent drug, the formation clearance of the metabolite, the clearance elimination of the metabolite, and the distribution clearance of the metabolite were estimated by simultaneous fitting of the concentration of parent drug and metabolites as a function of time curve to pharmacokinetic models (see FIGS. 7A & 8A) specified as a system of differential equations (Gabrielsson & Weiner, Phamacokinetic/Phamacodynamic Data Analysis: Concepts and Applications, Swedish Pharmaceutical Press (1997)).

Solubility = type: physicochemical; details: read-out: Solubility
[2] = system: enterovirus strain, ECHO 30, strain Bastianni; test: Enterovirus plaque formation assay in SF cells; type: cell-based; details: ECHO 30, SF cells, plaque assay, read-out: IC50
From the text: Virus stocks. The HIV-1 strain used in this study was HTLV-IIIB (Uckun et al., 1998 Antimicro. Agents and Chemother., 42:383-388). The non-HIV viruses included in the present study were the gancyclovir-sensitive cytomegalovirus (CMV) strain AD169 (ATCC VR-538); acyclovir-sensitive herpes simplex virus (HSV) Type I strain HF (ATCC VR-260); acyclovir-sensitive HSV Type II strain G (ATCC VR-734); adenovirus strain Type 5, strain adenoid 75 (ATCC VR-5); enterovirus strain, ECHO 30, strain Bastianni (ATCC VR-322); and respiratory syncytial virus (RSV), strain Long (ATCC VR-26).
Plaque formation assays. Plaque assays were used to examine the activity of the compounds against non-HIV viruses. The skin fibroblast cell line SF (ATCC CRL-2097) was used as a target for AD169, Adenovirus Type 5. […] cell line (ATCC CCL-81) was used as a target for HSV HF and G. The HEP-2 cell line (ATCC CCL-23) was used as a target for the RSV strain Long. These cell lines were cultured at 1×10^5 cells/well in 24-well (all but ECHO 30-infected SF) or 6-well (ECHO 30-infected SF) tissue culture plates with 0.9% methylcellulose or 0.4% SeaPlaque agarose semisolid support. […] Percent inhibition of plaque formation was calculated by comparing the plaque numbers from the test substance-treated infected cells with the plaque numbers from untreated infected cells (i.e., virus controls). The IC50 values were determined using the Statview statistics program (SAS Institute, Inc., Cary, N.C.).
Statistical analysis. […] An IC50 value was calculated from each set of triplicate wells using nonlinear regression modeling of the exponential form of the linearized equation (Statview, SAS Institute, Inc., Cary, N.C.). […]
The skin fibroblast cell line SF (ATCC CRL-2097) was used as a target for AD169, Adenovirus Type 5, and ECHO 30; the VERO cell line (ATCC CCL-81) was used as a target for HF and G; and the HEP-2 cell line (ATCC CCL-23) was used as target for the RSV strain Long. Results are expressed as the average IC50 values in μM. […]

[3] = female, Balb/c, mouse, in vivo, iv
[4] = female, Balb/c, mouse, in vivo, iv, 40 mg/kg, after i.v. 40 mg/kg d4T, estimate from composite curve of pooled data
[5] = female, Balb/c, mouse, in vivo, iv, 40 mg/kg, after i.v. 40 mg/kg d4T, mean ± S.E.M
[6] = female, Balb/c, mouse, in vivo, iv, 75 mg/kg, plasma analyte = label, after i.v. 75 mg/kg Ala-d4T-MP, estimate from composite curve of pooled data
[7] = female, Balb/c, mouse, in vivo, iv, 75 mg/kg, plasma analyte = label, after i.v. 75 mg/kg Ala-d4T-MP, mean ± S.E.M
[8] = female, Balb/c, mouse, in vivo, iv, 100 mg/kg, plasma analyte = label, after i.v. 100 mg/kg compound 113, estimate from composite curve of pooled data
[9] = female, Balb/c, mouse, in vivo, iv, 100 mg/kg, plasma analyte = label, after i.v. 100 mg/kg compound 113, mean ± S.E.M

Cc1cn([C@H]2C=C[C@@H](CO)O2)c(=O)[nH]c1=O [d4T, 2′, 3′-Didehydro-3′-deoxy thymidine, reference compound]
CLme (elimination of d4T derived from Ala-d4T-MP) ([1]; after i.v. Ala-d4T-MP, model fit, C.V. of modeling in parentheses): 88.4 (13.0%) ml/min/kg
CLme2 (elimination of d4T from the body) ([1]; after i.v. compound 113, model fit, C.V. of modeling in parentheses): 47.1 (74.1%) ml/min/kg
CLme2 (elimination of d4T from the body) [1, 3]: 62.0 mL/min/kg
CLme (elimination of d4T derived from Ala-d4T-MP) [1, 3]: 88.4 mL/min/kg
fraction of parent converted to the metabolite [1, 3]: 15%
fraction of parent converted to the metabolite (fm) [1, 3]: 24%
Cmax [1, 4]: 280 µM
clearance [1, 4]: 15 mL/min/kg
half-life [1, 4]: 30.3 min
AUC [1, 4]: 204 µM·h
Vd [1, 4]: 0.658 L/kg
Cmax [1, 5]: 319 µM
clearance [1, 5]: 15.2 mL/min/kg
half-life [1, 5]: 26.6 min
Vd [1, 5]: 0.582 L/kg
Cmax [1, 6]: 35.2 µM
half-life [1, 6]: 34 min
AUC [1, 6]: 31.5 µM·h
Tmax [1, 6]: 4.4 min
Cmax [1, 7]: 35.9 µM
half-life [1, 7]: 32.4 min
AUC [1, 7]: 30.3 µM·h
Tmax [1, 7]: 5 min
Cmax [1, 8]: 15.7 µM
half-life [1, 8]: 115 min
AUC [1, 8]: 48.6 µM·h
Tmax [1, 8]: 18.7 min
half-life [1, 9]: 116 min
AUC [1, 9]: 47.6 µM·h
Tmax [1, 9]: 17.4 min
AUC ([1]; female, Balb/c, mouse, plasma, iv, after i.v. 40 mg/kg d4T, mean ± S.E.M): 203 µM·h
Solubility (Solubility): 83 mg/mL (≈ 370 mM)
IC50 [2]: > 100 µM
